Molecules are shown by their SMILES.

T1 sequence (Q02750 whole entry S218D/S222D): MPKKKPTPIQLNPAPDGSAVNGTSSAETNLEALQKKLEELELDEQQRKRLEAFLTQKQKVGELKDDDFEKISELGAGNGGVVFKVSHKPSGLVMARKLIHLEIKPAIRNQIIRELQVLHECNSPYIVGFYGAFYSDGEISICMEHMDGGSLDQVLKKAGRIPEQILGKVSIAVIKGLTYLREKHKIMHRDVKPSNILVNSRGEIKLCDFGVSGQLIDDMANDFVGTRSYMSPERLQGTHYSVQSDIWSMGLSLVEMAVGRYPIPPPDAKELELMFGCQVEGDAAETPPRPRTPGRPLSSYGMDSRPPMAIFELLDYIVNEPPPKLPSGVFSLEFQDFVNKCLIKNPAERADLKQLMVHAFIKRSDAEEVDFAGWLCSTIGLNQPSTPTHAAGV

The assay addresses T1, MEK1^CA (human GST-MEK1, constitutively active, Ser218Asp and Ser222Asp) (Homo sapiens, UniProt Q02750, S218D/S222D).
T1 construct: GST; made in house; host or cells: Escherichia coli
As to the kind of experiment: MEK1 enzymatic activity assay (MEK1^CA / ERK2 / MBP, [γ-33P]ATP incorporation). It is filed as biochemical. The following applies: Table 1, compounds of formula I; read-out: Avg IC50. The method in brief: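 Cascade assay: 25 µl reactions with 0.002 nmol E. coli-expressed GST-MEK1 S218D/S222D, 0.02 nmol His-tagged mouse ERK2, 0.25 nmol MBP, 0.25 nmol unlabeled ATP and 0.1 µCi [γ-33P]ATP. Compound preincubated 30 min at ambient temperature with MEK1/ERK2; stopped with TCA, 33P-labelled protein filter-captured and scintillation-counted.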
As a reminder, the IC50 is the concentration at which inhibition is half-maximal. For `N=C(NCC1(O)CCCCC1)c1c(O)nsc1Nc1ccc(Oc2ccccc2)cc1` [compound 189], the IC50 was in the range of 100 to 500 nM.
As for `N=C(NC1(CO)CCCC1)c1c(O)nsc1Nc1ccc(Oc2ccccc2)cc1` [compound 190], the half-maximal inhibitory concentration (IC50) fell in the range of 100 to 500 nM.
For `CC(CO)NC(=N)c1c(O)nsc1Nc1ccc(Oc2ccc(Cl)cc2)cc1` (centres unmarked) [compound 191] the value was 100 to 500 nM.
For `N=C(NCCO)c1c(O)nsc1Nc1ccc(Oc2ccc(Cl)cc2)cc1` [compound 192] the value was 100 to 500 nM; for `CCC[C@H]1CC[C@H](c2ccc(Nc3snc(O)c3C(=N)NC[C@@H](O)CO)cc2)CC1` [compound 193], greater than 500 nM; for `CCn1sc(Nc2ccc(Oc3ccccc3)cc2)c(C(=N)NC(C)C)c1=O` [compound 194], greater than 500 nM.
The same measure for `CC(C)C(=O)O[C@H]1CC[C@H](c2ccc(Nc3snc(O)c3C(=N)NCC(O)CO)cc2)CC1` (some centres unmarked) [compound 195]: greater than 500 nM.
As to `N=C(NCC(O)CO)c1c(O)nsc1Nc1ccc([C@H]2CC[C@H](O)CC2)cc1` (some centres unmarked) [compound 196], the half-maximal inhibitory concentration (IC50) was greater than 500 nM.
For `CC(C)NC(=N)c1c(O)nsc1Nc1ccc([C@H]2CC[C@H](OC(=O)C(C)C)CC2)cc1` [compound 197], the IC50 fell in the range of 100 to 500 nM.
Take `CNC(=N)c1c(O)nsc1Nc1ccc(Oc2ccccc2)cc1` [compound 198]: the IC50 lay in the range of 1 to 100 nM.
The same measure for `CCNC(=N)c1c(O)nsc1Nc1ccc(Oc2ccccc2)cc1` [compound 199]: 1 to 100 nM.
For `C=CCNC(=N)c1c(O)nsc1Nc1ccc(Oc2ccccc2)cc1` [compound 200] the value was 1 to 100 nM; for `CCCNC(=N)c1c(O)nsc1Nc1ccc(Oc2ccccc2)cc1` [compound 201], 100 to 500 nM; for `CC(C)CNC(=N)c1c(O)nsc1Nc1ccc(Oc2ccccc2)cc1` [compound 202], 1 to 100 nM.
The same measure for `N=C(NCC(O)O)c1c(O)nsc1Nc1ccc(Oc2ccc(F)cc2)cc1` [compound 203]: greater than 500 nM.
With `N=C(NCCO)c1c(O)nsc1Nc1ccc(Oc2ccc(F)cc2)cc1` [compound 204], the half-inhibitory concentration (IC50) is greater than 500 nM.
On to `CC(C)NC(=N)c1c(O)nsc1Nc1ccc(Oc2ccc(F)cc2)cc1` [compound 205], for which the IC50 was in the range of 100 to 500 nM.
For `CC(CO)NC(=N)c1c(O)nsc1Nc1ccc(Oc2ccc(F)cc2)cc1` (centres unmarked) [compound 206], the concentration for half-maximal inhibition (IC50) was greater than 500 nM.
For `N=C(NCCO)c1c(O)nsc1Nc1ccc(Oc2ccc(F)cc2)c(Br)c1` [compound 207] the value was greater than 500 nM; for `N=C(NCC(O)O)c1c(O)nsc1Nc1ccc(Oc2ccc(F)cc2)c(Br)c1` [compound 208], greater than 500 nM; for `CC(CO)NC(=N)c1c(O)nsc1Nc1ccc(Oc2ccc(F)cc2)c(Br)c1` (centres unmarked) [compound 209], 100 to 500 nM.
For `N=C(NCC(O)O)c1c(O)nsc1Nc1ccc(Oc2ccccc2Cl)cc1` [compound 210] the value was 100 to 500 nM; for `CC(CO)NC(=N)c1c(O)nsc1Nc1ccc(Oc2ccccc2Cl)cc1` (centres unmarked) [compound 211], greater than 500 nM; for `CC(C)NC(=N)c1c(O)nsc1Nc1ccc(Oc2ccccc2Cl)cc1` [compound 212], 100 to 500 nM.
The same measure for `N=C(NCCO)c1c(O)nsc1Nc1ccc(Oc2ccccc2Cl)cc1` [compound 213]: 1 to 100 nM.
Take `N=C(NCC(O)CO)c1c(O)nsc1Nc1ccc(I)cc1` (centres unmarked) [compound 216]: the IC50 is greater than 500 nM.
Take `N=C(NCCO)c1c(O)nsc1Nc1ccc(I)cc1` [compound 217]: the IC50 is greater than 500 nM.
For `CC(CO)NC(=N)c1c(O)nsc1Nc1ccc(/N=N/c2ccccc2)cc1` (centres unmarked) [compound 219] the value was 1 to 100 nM.
As for `CC(CO)NC(=N)c1c(O)nsc1Nc1ccc(OC2CCCCC2)cc1` (centres unmarked) [compound 220], the 50% inhibitory concentration (IC50) was greater than 500 nM.
The same measure for `N=C(NCCO)c1c(O)nsc1Nc1ccc(Oc2ccc(Cl)cc2Cl)cc1` [compound 221]: 100 to 500 nM; for `CC(C)NC(=N)c1c(O)nsc1Nc1cc(Cl)cc(Cl)c1` [compound 224]: 100 to 500 nM.
The same measure for `CC(C)NC(=N)c1c(O)nsc1Nc1ccc(Cl)cc1Cl` [compound 225]: 1 to 100 nM; for `CC(C)NC(=N)c1c(O)nsc1Nc1ccc2c(c1)Cc1ccccc1-2` [compound 227]: greater than 500 nM; for `N=C(NCC(O)O)c1c(O)nsc1Nc1ccc(Oc2ccc(Cl)cc2Cl)cc1` [compound 229]: 1 to 100 nM.
The same measure for `CNC(=N)c1c(O)nsc1Nc1ccc(Oc2ccc(F)cc2)c(Br)c1` [compound 230]: greater than 500 nM.
For `CNC(=N)c1c(O)nsc1Nc1ccc(Oc2ccc(Cl)cc2Cl)cc1` [compound 231], the 50% inhibitory concentration (IC50) fell in the range of 100 to 500 nM.
For `CC(C)NC(=N)c1c(O)nsc1Nc1ccc(Oc2ccc(Cl)cc2Cl)cc1` [compound 232], the concentration for half-maximal inhibition (IC50) was in the range of 1 to 100 nM.
The same measure for `CC(CO)NC(=N)c1c(O)nsc1Nc1cc(Cl)cc(Cl)c1` (centres unmarked) [compound 233]: 100 to 500 nM.
For `CC(C)NC(=N)c1c(O)nsc1Nc1ccc(C(=O)c2ccccc2)cc1` [compound 234] the value was 100 to 500 nM.
For `CC(CO)NC(=N)c1c(O)nsc1Nc1ccc(/C=C/c2ccccc2)cc1` (centres unmarked) [compound 240] the value was 100 to 500 nM; for `CC(C)NC(=N)c1c(O)nsc1Nc1ccc(/C=C/c2ccccc2)cc1` [compound 241], 100 to 500 nM; for `CC(C)NC(=N)c1c(O)nsc1Nc1ccc(Oc2ccc(F)cc2)c(Br)c1` [compound 242], 100 to 500 nM.
Consider `CC(C)NC(=N)c1c(O)nsc1Nc1ccc(O)c(Cl)c1` [compound 243], for which the half-maximal inhibitory concentration (IC50) was 100 to 500 nM.
As for `CC(C)NC(=N)c1c(O)nsc1Nc1ccc(S(=O)(=O)c2ccccc2)cc1` [compound 244], the half-inhibitory concentration (IC50) is greater than 500 nM.
In the case of `Cc1ccc(Oc2ccc(Nc3snc(O)c3C(=N)NC(C)C)cc2)cc1` [compound 246], the IC50 lay in the range of 1 to 100 nM.
The same measure for `Cc1ccc(Oc2ccc(Nc3snc(O)c3C(=N)NC(C)CO)cc2)cc1` (centres unmarked) [compound 247]: 100 to 500 nM.
On to `CC(C)NC(=N)c1c(O)nsc1Nc1ccc(Oc2cc(Cl)cc(Cl)c2)cc1` [compound 248], for which the half-maximal inhibitory concentration (IC50) is 1 to 100 nM.
The same measure for `CC(C)NC(=N)c1c(O)nsc1Nc1ccc(Oc2cccc(Cl)c2)cc1` [compound 249]: 1 to 100 nM.
For `CC(C)NC(=N)c1c(O)nsc1Nc1ccc(Oc2cccc(Br)c2)cc1` [compound 250] the value was 1 to 100 nM; for `CC(CO)NC(=N)c1c(O)nsc1Nc1ccc(Oc2cccc(Br)c2)cc1` (centres unmarked) [compound 251], 1 to 100 nM; for `CC(CO)NC(=N)c1c(O)nsc1Nc1ccc(Oc2cccc(Cl)c2)cc1` (centres unmarked) [compound 252], 1 to 100 nM.
For `CC(C)NC(=N)c1c(O)nsc1Nc1ccc(OC2CCNCC2)cc1` [compound 253] the value was greater than 500 nM.
Take `CC(C)NC(=N)c1c(O)nsc1Nc1ccc(Sc2ccccc2)cc1` [compound 255]: the concentration for half-maximal inhibition (IC50) was 1 to 100 nM.
`CC(C)NC(=N)c1c(O)nsc1Nc1ccc(Oc2ccccc2)nc1` [compound 257]: the IC50 was greater than 500 nM.
The same measure for `CC(CO)NC(=N)c1c(O)nsc1Nc1ccc(Oc2ccccc2)nc1` (centres unmarked) [compound 258]: greater than 500 nM.
For the molecule `Cc1ccc(Oc2ccc(Nc3snc(O)c3C(=N)NC(C)C)cc2)cn1` [compound 259], the IC50 was greater than 500 nM.
The same measure for `CC(C)NC(=N)c1c(O)nsc1Nc1ccc(Oc2cccc(N(C)C)c2)cc1` [compound 260]: 100 to 500 nM; for `Cc1cc(C#N)cc(C)c1Oc1ccc(Nc2snc(O)c2C(=N)NC(C)C)cc1` [compound 262]: greater than 500 nM; for `CC(C)NC(=N)c1c(O)nsc1Nc1ccc(Cl)nc1` [compound 264]: greater than 500 nM.
The same measure for `CC(CO)NC(=N)c1c(O)nsc1Nc1ccc(OCc2ccccc2)cc1` (centres unmarked) [compound 265]: greater than 500 nM.
For the molecule `Cc1cc(C)cc(Oc2ccc(Nc3snc(O)c3C(=N)NC(C)C)cc2)c1` [compound 267], the half-inhibitory concentration (IC50) was 1 to 100 nM.
Consider `Cc1cc(C)cc(Oc2ccc(Nc3snc(O)c3C(=N)NC(C)CO)cc2)c1` (centres unmarked) [compound 268], for which the IC50 was 100 to 500 nM.
For `CC(C)NC(=N)c1c(O)nsc1Nc1ccc(Oc2cccc(C(F)(F)F)c2Cl)cc1` [compound 269], the IC50 is 1 to 100 nM.
The same measure for `COc1cccc(F)c1Oc1ccc(Nc2snc(O)c2C(=N)NC(C)C)cc1` [compound 270]: greater than 500 nM.
For `Cc1cccc(C)c1Oc1ccc(Nc2snc(O)c2C(=N)NC(C)C)cc1` [compound 271] the value was greater than 500 nM; for `CC(C)NC(=N)c1c(O)nsc1Nc1ccc(Oc2cccc(F)c2)cc1` [compound 272], 1 to 100 nM.
The same measure for `CC(CO)NC(=N)c1c(O)nsc1Nc1ccc(Oc2cccc(F)c2)cc1` (centres unmarked) [compound 273]: 1 to 100 nM; for `CC(C)NC(=N)c1c(O)nsc1Nc1ccc(Oc2cccc(C(F)(F)F)c2)cc1` [compound 275]: 1 to 100 nM.
Turning to `Cc1cccc(C)c1Oc1ccc(Nc2snc(O)c2C(=N)NC(C)CO)cc1F` (centres unmarked) [compound 276], the concentration for half-maximal inhibition (IC50) is greater than 500 nM.
The same measure for `CC(C)NC(=N)c1c(O)nsc1Nc1ccc(Oc2ccccc2Cl)c(F)c1` [compound 277]: 1 to 100 nM.
Regarding `CC(CO)NC(=N)c1c(O)nsc1Nc1ccc(Oc2ccccc2Cl)c(F)c1` (centres unmarked) [compound 278], the IC50 lay in the range of 1 to 100 nM.
For `Cc1cccc(C)c1Oc1ccc(Nc2snc(O)c2C(=N)NC(C)C)cc1F` [compound 279], the concentration for half-maximal inhibition (IC50) was in the range of 1 to 100 nM.
For `CC(CO)NC(=N)c1c(O)nsc1Nc1ccc(Oc2ccccc2Br)c(Cl)c1` (centres unmarked) [compound 280] the value was 1 to 100 nM; for `COc1cccc(F)c1Oc1ccc(Nc2snc(O)c2C(=N)NC(C)CO)cc1` (centres unmarked) [compound 281], 100 to 500 nM.
Take `Cc1cccc(C)c1Oc1ccc(Nc2snc(O)c2C(=N)NC(C)CO)cc1` (centres unmarked) [compound 282]: the IC50 was greater than 500 nM.
The same measure for `CC(CO)NC(=N)c1c(O)nsc1Nc1ccc(Oc2cccc(C(C)(C)C)c2)cc1` (centres unmarked) [compound 284]: 100 to 500 nM.
For `Cc1cc(C#N)cc(C)c1Oc1ccc(Nc2snc(O)c2C(=N)NC(C)C)cc1Cl` [compound 285] the value was greater than 500 nM.
